# Assay results: patent US20230346889A9, “TREATMENT OF ACUTE HEART FAILURE” (AnaCardio R&D AB, priority 2019, published 2023)
# “And” between values parts separate entries of the source, which are not always exact repeats. Identical values can stand only once. “Also recorded” adds a separate entry of the source.
# Key:
# [1] = system: patients with advanced CHF and reduced EF; assay: Trial safety and clinical outcomes (hypotension, arrhythmia, ischemia, symptoms, events); type: in vivo, human
# Experimental: Safety outcomes included reduction in systolic blood pressure, hypotension, and symptomatic hypotension, prolongation of the QTc, ischemia, and arrhythmia during or after infusion, and clinical outcomes.
# The following symptoms were assessed as yes or no prior to infusion and after 30, 60, 120 min and 30 min after infusion and at the 2-5 days follow-up; headache, dizziness, dyspnea, central chest pain, flush, sleepiness, upset stomach and other symptoms. The following signs were recorded prior to start of infusion and after lunch; rales, peripheral oedema, jugular venous distension, hepatomegaly and S3 gallop.
# Hypotension was assessed in two ways: The difference in change in blood pressure between the groups was quantified, and hypotension in any one patient was defined as a drop of systolic blood pressure of >20 mm Hg or to <80 mm Hg.
# The difference in change in heart rate between the groups was quantified. Bradycardia was defined as a reduction in heart rate of >15 beats per minute, to a heart rate <40 beats per minute, an increase in PQ time by >20 ms, or AV block II-III. In individual patients, tachycardia was defined as an increase in heart rate by >10 beats per minute or heart rate >110 beats per minute. Ventricular extraystoles were quantified and ventricular tachycardia was defined as non-sustained if ≥3 beats in a row up to ≤30 seconds, and sustained if >30 seconds. Supra-ventricular arrhythmia was defined as ectopic atrial tachycardia, atrial flutter or atrial fibrillation, or AV-nodal tachycardia of >3 seconds duration. Ghrelin may […] hERG channels and as such cause a prolongation of the QTc interval on the EKG, which theoretically could predispose to arrhythmia. Therefor we monitored QTc.
# Ischemia was assessed in two ways: The difference in change in troponin T between the groups was quantified, and ischemia in any one patient was defined as symptoms of ECG changes consistent with ischemia, or a rise in troponin T of >50%.
# Patients were followed in the medical record until 30 Apr. 2017. Outcomes were freedom from all-cause death; all cause death or HF hospitalization; all cause death or heart transplantation or left ventricular assist device, and a combination of all these.
# [2] = system: isolated cardiomyocytes from SHAM and HF mice; assay: Cytosolic Ca2+ transients and cell shortening in isolated cardiomyocytes; type: cell-based, mouse; settings: for cardiomyocyte fractional shortening (FS): 15 min ghrelin exposure, 100 nM, sham and post-MI HF mice; for cardiomyocyte Ca2+ transients (amplitude): SHAM and HF mice, vs placebo
# Description: Twelve-week old C57BL6 mice were anesthetized with gas mixture of oxygen and isoflurane (2-3%). Myocardial infarction (MI) was induced in mice by permanent ligation of the left coronary artery, as previously described (Perrino et al., 2013). Briefly, mice underwent thoracotomy and subsequent left coronary ligation; ˜80% survived during the follow-up period (4-6 weeks). SHAM-operated animals underwent the same procedure without coronary artery ligation (SHAM). At study termination, after sedation, mice were euthanized through cervical dislocation.
# After euthanasia, single cardiomyocytes were isolated from the left and right ventricles (mouse hearts are dominated by left ventricles) and atria were excluded, following the protocols developed by the Alliance for Cellular Signalling (AfCS Procedure Protocol ID PP00000 125) as previously described (Pironti et al., 2016).
# Mouse cardiomyocytes were incubated with a cell permeable form of fluorescent indicators Fluo-3 AM followed by washing for >5 min as previously described (Andersson et al., 2011). Cardiomyocytes were plated on laminin coated glass bottom dishes. The dishes were placed in a custom built perfusion/stimulation chamber and continuously perfused with O2/CO2 (95/5%) bubbled Tyrode solution with the following composition (in mM): NaCl 121, KCl 5.0, CaCl2 1.8, MgCl2 0.5, NaH2PO4 0.4, NaHCO3 24, EDTA 0.1, glucose 5.5. The cardiomyocytes were stimulated to contract using an electrical field between two platinum electrodes attached to the perfusion/stimulation chamber. […] Fluorescence was measured using a confocal microscope Bio-Rad MRC 1024 unit attached to a Nikon Diaphot inverted microscope (40-60×oil immersion lenses). Confocal images were analyzed off line using ImageJ (National Institutes of Health; available at http://rsb.info.nih.gov/ij). Line scan confocal images were obtained from paced cardiomyocytes with the line scan running along the long axis of the cell. Changes in the emitted fluorescence, representing changes in free cytoplasmic Ca^2+, were quantified. The amplitude of Ca^2+ transients was measured as the change in the fluo-3 fluorescence signal (F) divided by the fluorescence immediately before a stimulation pulse given under control conditions (FO). Ca^2+ transient decay time constant (Tau) was quantified by fitting the decay to an exponential decay function in the GraphPad Prism software (La Jolla, Ca, USA). Fractional cell shortening was calculated from the line scan images as the fractional change in the cell length at rest and during maximal contraction.
# The myocytes were superfused with physiological buffer (Tyrode solution) or for the pharmacological experiments Tyrode+Ghrelin (100 nM) or D-Lys 3 (D-Lys 3 GHS-R1a antagonist 3 μM). All cells were perfused for 15 min with respective solution before measurements, except in some experiments where D-Lys 3 (3 μM) was introduced in perfusion system 10 minutes before adding Ghrelin. All experiments were performed at room temperature (˜24° C.).
# The myocytes were superfused with physiological buffer (Tyrode solution) with or without Ghrelin (Bachem, Bubendorf, Switzerland) (100 nM). All cardiomyocytes were superfused for 15 min with respective solution before measurements. An antagonist against the ghrelin receptor GHS-r1a (D-Lys 3; 3 μM), was used in some experiments. In those experiments, D-Lys 3 was introduced in superfusion system 10 minutes before adding Ghrelin.
# [3] = system: dogs with acute myocardial infarction; settings: US2004014671A1; cited from earlier work
structure (smiles),measurement,setting,value
CCCCCCCC(=O)OC[C@H](NC(=O)[C@H](CO)NC(=O)CN)C(=O)N[C@@H](Cc1ccccc1)C(=O)N[C@@H](CC(C)C)C(=O)N[C@@H](CO)C(=O)N1CCC[C@H]1C(=O)N[C@@H](CCC(=O)O)C(=O)N[C@@H](Cc1cnc[nH]1)C(=O)N[C@@H](CCC(N)=O)C(=O)N[C@@H](CCCNC(=N)N)C(=O)N[C@H](C(=O)N[C@@H](CCC(N)=O)C(=O)N[C@@H](CCC(N)=O)C(=O)N[C@@H](CCCNC(=N)N)C(=O)N[C@@H](CCCCN)C(=O)N[C@@H](CCC(=O)O)C(=O)N[C@@H](CO)C(=O)N[C@@H](CCCCN)C(=O)N[C@@H](CCCCN)C(=O)N1CCC[C@H]1C(=O)N1CCC[C@H]1C(=O)N[C@@H](C)C(=O)N[C@@H](CCCCN)C(=O)N[C@@H](CC(C)C)C(=O)N[C@@H](CCC(N)=O)C(=O)N1CCC[C@H]1C(=O)N[C@@H](CCCNC(=N)N)C(=O)O)C(C)C [Ghrelin],troponin T in the one patient with >50% increase,[1]; Baseline,31 ng/L
same,patients with flush,"[1]; at 60 min, vs. 0 placebo, p=0.006",7
same,troponin T in the one patient with >50% increase,[1]; at FU,164 ng/L
same,incidence of hypotension,[1]; drop of systolic BP >20 mm Hg or to <80 mm Hg,no incidence of hypotension; also recorded: no events of hypotension or symptomatic hypotension
same,troponin T in the one patient with >50% increase,[1]; during infusion (successive samples),38 ng/L and 42 ng/L and 43 ng/L and 34 ng/L
same,patients with a >50% increase in troponin T,[1]; ghrelin group (n = 15),One
same,effect on heart rate,"[1]; human, in vivo",no effect
same,incidence of ventricular tachy or brady arrhythmias,"[1]; human, in vivo",no effect
same,symptoms or EKG changes consistent with ischemia,"[1]; human, in vivo",no symptoms or EKG changes consistent with ischemia
same,clinical events vs placebo,[1]; over 90 days follow-up,no differences in clinical events
same,kinetics of Ca2+ transients (ROI and Tau),[2],did not affect
same,cardiomyocyte fractional shortening (FS),[2],increases contractility
same,cardiomyocyte fractional shortening (FS),[2]; listed as ghrelin,increased compared to placebo
same,cardiomyocyte Ca2+ transients (amplitude),[2],did not differ
same,cardiomyocyte Ca2+ transients (amplitude),[2]; listed as ghrelin,not different; also recorded: no difference
same,improvement of CO,[3],not
